In publication PMC8325119, “A Novel Class of Functionalized Synthetic Fluoroquinolones with Dual Antiproliferative - Antimicrobial Capacities” (Asian Pacific Journal of Cancer Prevention : APJCP, 2021):
Converted amounts (≈) assume the structure as drawn. “And” between values parts separate entries of the source, which are not always exact repeats. Identical values can stand only once. Like-named read-outs stand apart in the source and are kept apart here.

Experiments:
[1] = system: A549 cell line; experiment: SRB cytotoxicity assay, A549 lung cancer cell line
Method: (§1) All reagents and chemicals of analytical grade were obtained from Sigma (Dorset, UK); unless stated otherwise. All chemicals, reagents and solvents (of analytical grade) were used directly without further purification. MCF7 cell line ATCC® HTB-22™, T47D cell line ATCC® HTB-133™, K562 cell line ATCC® CCL-243™, Panc1 cell line ATCC® CRL-1469™. A375.S2 cell line ATCC® CRL-1872™, A549 cell line ATCC® CCL-185™, HELA cell line ATCC® CCL-2™ were cultured in Dulbecco’s modified eagle’s medium (DMEM). (DMEM) containing foetal bovine serum (FBS) (Bio Whittaker, Verviers, Belgium), 4-(2-hydroxyethyl)-1-piperazine ethane sulfonic acid (HEPES) Buffer, L-glutamine, gentamicin, penicillin, and streptomycin sulphate (Sigma, St. Luis, MO, USA), trypsin, trypan blue, Ciprofloxacin HCl from Aarti drugs Ltd/India, was a kind gift from Pharma International Company- Amman; Fluconazole from Neopharma, United Arab Emirates, a kind gift from Pharmaceutical Research Unit, Amman; Trypon soya agar (TSA), trypon soya broth (TSB), sabouraud dextrose agar (SDA) were obtained from Liofilchem (Italy) or Oxoid LTD (Basingstoke, England), they were reconstituted and sterilized by autoclave at 121 °C for 15 min.
(§2) The cytotoxicity measurements were determined using Sulforhodamine B (SRB) colorimetric assay for cytotoxicity screening. The mechanism of reduction of cell viability was adopted as described previously (Arabiyat et al., 2016a,b; 2017; Alabsi et al., 2018; Jumah, 2018; AlShahrabi et al., 2020). Human periodontal ligament fibroblasts (PDL) are a primary normal cell culture for verification of selective cytotoxicity. […] Selectivity ratio as indicative factor of the safety of compounds was calculated by dividing IC50 of tested compound on normal fibroblasts by IC50 of the same compound on specific pathological cell line (Hoffman et al., 2011).

[2] = system: A375.S2 cell line; experiment: SRB cytotoxicity assay, A375.S2 melanoma cell line
Method: as §1, §2

[3] = system: MCF7 cell line; experiment: SRB cytotoxicity assay, MCF7 breast cancer cell line
Method: as §1, §2

[4] = system: HELA cell line; experiment: SRB cytotoxicity assay, HELA cervical cancer cell line
Method: as §1, §2

[5] = system: K562 cell line; experiment: SRB cytotoxicity assay, K562 leukaemia cell line
Method: as §1, §2

[6] = system: PANC 1 cell line; experiment: SRB cytotoxicity assay, PANC 1 pancreatic cancer cell line
Method: as §1, §2

[7] = system: T47D cell line; experiment: cells; settings: 72 h; for IC50: read-out: Cytotoxicity IC50 value, T47D cell line; for Cytotoxicity IC50 value, T47D cell line: value in brackets
Method: as §1, §2

[8] = system: PDL Fibroblasts; experiment: SRB cytotoxicity on normal periodontal ligament fibroblasts, selective cytotoxicity; format: cell-based, Human; settings: for IC50 / IC50 value PDL Fibroblasts: normal fibroblasts, SRB, 72 h, mean ± SD; for Selectivity index SI (K562): IC50 on PDL fibroblasts divided by IC50 on K562
Method: as §2

[9] = Homo sapiens, A549, 72 h, read-out: Cytotoxicity IC50 value, A549 cell line
[10] = Homo sapiens, A375-S2, 72 h, read-out: Cytotoxicity IC50 value, A375.S2 cell line
[11] = Homo sapiens, MCF7, 72 h, read-out: Cytotoxicity IC50 value, MCF7 cell line
[12] = Homo sapiens, HeLa, 72 h, read-out: Cytotoxicity IC50 value, HELA cell line, SRB, 72 h, 0.1-200 μg/mL range, mean ± SD, value in brackets
[13] = Homo sapiens, HeLa, 72 h, read-out: Cytotoxicity IC50 value, HELA cell line, SRB, 72 h, 0.1-200 μg/mL range, mean ± SD, NI = lack of cytotoxicity in range
[14] = Homo sapiens, K562, 72 h, read-out: Cytotoxicity IC50 value, K562 cell line, SRB, 72 h, 0.1-200 μg/mL range, mean ± SD, value in brackets
[15] = Homo sapiens, K562, 72 h, read-out: Cytotoxicity IC50 value, K562 cell line, SRB, 72 h, 0.1-200 μg/mL range, mean ± SD, NI = lack of cytotoxicity in range
[16] = Homo sapiens, PANC-1, 72 h, read-out: Cytotoxicity IC50 value, PANC 1 cell line
[17] = Homo sapiens, Fibroblast, 0.1-200 μg/mL range, NI = lack of cytotoxicity in range
[18] = Homo sapiens, Fibroblast, value in brackets
[19] = SRB, 0.1-200 μg/mL range, mean ± SD
[20] = SRB, 0.1-200 μg/mL range, mean ± SD, NI = lack of cytotoxicity in range
[21] = 0.1-200 μg/mL range, NI = lack of cytotoxicity in range

| Compound | IC50 [1, 9] | IC50 [2, 10] | IC50 [3, 11] | IC50 [4, 12] [µg/mL] | IC50 [4, 13] | IC50 [5, 14] [µg/mL] | IC50 [5, 15] | IC50 [6, 16] | IC50 ([7]; Homo sapiens, T47D) | IC50 [8, 17] | IC50 [8, 18] [µg/mL] | Selectivity index SI (K562) [8] | IC50 [8, 21] [µM] | IC50 value PDL Fibroblasts ([8]; value in brackets) [µg/mL] | also measured |
| --- | --- | --- | --- | --- | --- | --- | --- | --- | --- | --- | --- | --- | --- | --- | --- |
| CCOC(=O)c1cn(C2CC2)c2c([N+](=O)[O-])c(Cl)c(F)cc2c1=O [1E] | 447 µM and 200 µg/mL | 271 µM and 121 µg/mL | 220 µM and 71.9 µg/mL | 43.3 | 133 ± 4.78 µM | 32.4 | 99.1 ± 7.5 µM | 79.3 µM and 25.9 µg/mL | 108 µM and 35.4 µg/mL |  |  |  |  |  |  |
| COc1ccccc1Nc1c(F)cc2c(=O)c(C(=O)O)cn(C3CC3)c2c1[N+](=O)[O-] [3a, 1-cyclopropyl-6-fluoro-7-(2-methoxy-phenylamino)-8-nitro-4-oxo-1,4-dihydro-quinoline-3-carboxylic acid] |  |  |  |  |  |  |  |  | > 200 µg/mL | 184 ± 3.69 µM | 76 |  |  |  | Selectivity index SI (MCF7) ([8]; IC50 on PDL fibroblasts divided by IC50 on MCF7): 2.71 |
| COc1cccc(Nc2c(F)cc3c(=O)c(C(=O)O)cn(C4CC4)c3c2[N+](=O)[O-])c1 [3b, 1-cyclopropyl-6-fluoro-7-(3-methoxy-phenylamino)-8-nitro-4-oxo-1,4-dihydro-quinoline-3-carboxylic acid] | > 200 µg/mL | > 200 µg/mL | > 200 µg/mL |  | > 200 µg/mL |  | > 200 µg/mL | > 200 µg/mL | > 200 µg/mL | > 200 µg/mL |  |  |  |  |  |
| COc1ccc(Nc2c(F)cc3c(=O)c(C(=O)O)cn(C4CC4)c3c2[N+](=O)[O-])cc1 [3c, 1-cyclopropyl-6-fluoro-7-(4-methoxy-phenylamino)-8-nitro-4-oxo-1,4-dihydro-quinoline-3-carboxylic acid] | 64.4 µM and 26.6 µg/mL | 274 µM and 113 µg/mL | 54.2 µM and 22.4 µg/mL | 81.7 | 198 ± 11.1 µM | 32.7 | 79.1 ± 8.69 µM | 40.7 µM and 16.8 µg/mL | 66 µM and 27.3 µg/mL | 107 ± 5.61 µM | 44.3 |  |  |  | Cytotoxicity IC50 value, K562 cell line ([5]; SRB, 72 h, 0.1-200 μg/mL range, mean ± SD, value in brackets): 16.83 ± 0.15 µg/mL; Selectivity index SI (PANC 1) ([8]; IC50 on PDL fibroblasts divided by IC50 on PANC 1): 2.63 |
| CCc1ccc(Nc2c(F)cc3c(=O)c(C(=O)O)cn(C4CC4)c3c2[N+](=O)[O-])cc1 [3d, 1-cyclopropyl-6-fluoro-7-(4-ethyl-phenylamino)-8-nitro-4-oxo-1,4-dihydro-quinoline-3-carboxylic acid] | > 200 µg/mL | 372 µM and 153 µg/mL | > 200 µg/mL |  | > 200 µg/mL |  | > 200 µg/mL | > 200 µg/mL | > 200 µg/mL | 728 ± 119 µM | 300 |  |  |  | Selectivity index SI (A375.S2) ([8]; IC50 on PDL fibroblasts divided by IC50 on A375.S2): 1.95 |
| CCCCc1ccc(Nc2c(F)cc3c(=O)c(C(=O)O)cn(C4CC4)c3c2[N+](=O)[O-])cc1 [3e, 1-cyclopropyl-6-fluoro-7-(4-butyl-phenylamino)-8-nitro-4-oxo-1,4-dihydro-quinoline-3-carboxylic acid] | 64.2 µM and 28.2 µg/mL | 144 µM and 63.5 µg/mL | 428 µM and 188 µg/mL | 498 | 1130 ± 65.6 µM | 0.71 | 1.62 ± 0.16 µM | 12.2 µM and 5.38 µg/mL | 406 µM and 178 µg/mL | 711 ± 44.9 µM | 313 | 439.01 |  |  |  |
| CCn1cc(C(=O)O)c(=O)c2cc(F)c(Nc3ccc(OC)cc3OC)c(N)c21 [12c, 8-amino-7-(2,4-dimethoxy-phenylamino)-1-ethyl-6-fluoro-4-oxo-1,4-dihydro-quinoline-3-carboxylic acid] | 40.9 µM and 16.4 µg/mL | 67.3 µM and 27 µg/mL | 101 µM and 40.4 µg/mL | 15.6 | 38.8 ± 1.91 µM | 10.6 | 26.4 ± 4.54 µM | 93.5 µM and 37.5 µg/mL |  | 43.8 ± 6.21 µM | 17.6 | 1.65 |  |  |  |
| CCn1cc(C(=O)O)c(=O)c2cc(F)c3c(nnn3-c3ccccc3OC)c21 [13a, 9-ethyl-4-fluoro-3-(2-methoxy-phenyl)-6-oxo-6,9-dihydro-3H-[1,2, and 3] triazolo [4,5-h] quinoline-7-carboxylic acid] |  |  |  |  |  |  |  |  |  |  |  | 40.01 | 276 ± 20.7 | 105.13 ± 7.90 (≈ 275 µM) | Cytotoxicity IC50 value, A549 cell line [1]: 94.32 ± 1.44 µg/mL; IC50 [1]: 247 ± 3.78 µM; Cytotoxicity IC50 value, A375.S2 cell line [2]: 203.87 ± 4.80 µg/mL; IC50 [2]: 535 ± 12.6 µM; Cytotoxicity IC50 value, HELA cell line [4]: 20.06 ± 2.62 µg/mL; IC50 [4]: 52.6 ± 6.86 µM; Cytotoxicity IC50 value, K562 cell line [5]: 2.66 ± 0.49 µg/mL; IC50 [5]: 6.98 ± 1.28 µM; Cytotoxicity IC50 value, PANC 1 cell line [6]: 118.30 ± 6.71 µg/mL; IC50 [6]: 310 ± 17.6 µM; Cytotoxicity IC50 value, T47D cell line [7, 19]: 21.93 ± 0.87 µg/mL; IC50 [7, 20]: 57.5 ± 2.27 µM |
| CCn1cc(C(=O)O)c(=O)c2cc(F)c3c(nnn3-c3cccc(OC)c3)c21 [13b, 9-ethyl-4-fluoro-3-(3-methoxy-phenyl)-6-oxo-6,9-dihydro-3H-[1,2, and 3] triazolo [4,5-h] quinoline-7-carboxylic acid] |  |  |  |  |  |  |  |  |  |  |  |  | 332 ± 14.6 | 126.55 ± 5.58 (≈ 331 µM) | Cytotoxicity IC50 value, A549 cell line [1]: 95.87 ± 9.20 µg/mL; IC50 [1]: 251 ± 24.1 µM; Cytotoxicity IC50 value, A375.S2 cell line [2]: 38.96 ± 3.39 µg/mL; IC50 [2]: 102 ± 8.88 µM; Cytotoxicity IC50 value, MCF7 cell line [3]: 159.18 ± 8.68 µg/mL; IC50 [3]: 417 ± 22.8 µM; Cytotoxicity IC50 value, HELA cell line [4]: 15.99 ± 1.35 µg/mL; IC50 [4]: 41.9 ± 3.55 µM; Cytotoxicity IC50 value, K562 cell line [5]: 22.13 ± 0.85 µg/mL; IC50 [5]: 58 ± 2.22 µM; Cytotoxicity IC50 value, T47D cell line [7, 19]: 44.68 ± 3.49 µg/mL; IC50 [7, 20]: 117 ± 9.15 µM; Selectivity index SI (HELA) ([8]; IC50 on PDL fibroblasts divided by IC50 on HELA): 7.19 |
| N.N.[Cl][Pt][Cl] [Cisplatin, cisplatin, reference compound] |  |  |  |  |  |  |  |  |  |  |  |  | 0.71 ± 0.13 | 0.21 ± 0.04 |  |
